Assay results published in ChEMBL document CHEMBL3352322, “Synthesis and biological evaluation of 3-phenethylazetidine derivatives as triple reuptake inhibitors” (Bioorg Med Chem Lett, 2014).

Experiments:
[1] = biological target: T1, Sodium-dependent serotonin transporter (Homo sapiens, UniProt P31645); settings: HEK293, at 0.1 µM
Target sequence in this assay (P31645 whole entry, looked up): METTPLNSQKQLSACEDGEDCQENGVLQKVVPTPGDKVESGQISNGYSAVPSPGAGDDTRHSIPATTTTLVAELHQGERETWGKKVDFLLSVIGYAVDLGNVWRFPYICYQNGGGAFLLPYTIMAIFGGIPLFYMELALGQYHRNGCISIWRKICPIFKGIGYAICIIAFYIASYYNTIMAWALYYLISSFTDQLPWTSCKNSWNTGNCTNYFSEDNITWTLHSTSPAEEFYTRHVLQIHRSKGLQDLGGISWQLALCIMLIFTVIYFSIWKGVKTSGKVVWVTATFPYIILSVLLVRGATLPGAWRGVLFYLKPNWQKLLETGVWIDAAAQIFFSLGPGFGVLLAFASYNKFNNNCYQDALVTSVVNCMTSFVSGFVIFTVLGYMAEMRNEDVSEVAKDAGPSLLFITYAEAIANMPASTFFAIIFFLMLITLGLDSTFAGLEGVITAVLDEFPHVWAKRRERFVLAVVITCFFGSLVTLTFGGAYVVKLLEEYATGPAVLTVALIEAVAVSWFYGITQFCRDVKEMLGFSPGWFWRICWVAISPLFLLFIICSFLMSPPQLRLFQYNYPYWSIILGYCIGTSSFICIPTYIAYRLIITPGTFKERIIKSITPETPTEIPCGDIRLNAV

[2] = Stability in human liver microsomes assessed as compound remaining at 1 uM after 30 mins by LC/MS analysis; format: ADME; settings: read-out: Stability
[3] = biological target: T1, Sodium-dependent serotonin transporter; settings: HEK293, at 1 µM
Target sequence in this assay (P31645 whole entry, looked up): as above

[4] = biological target: T1, Sodium-dependent serotonin transporter; settings: HEK293, at 10 µM
Target sequence in this assay (P31645 whole entry, looked up): as above

[5] = biological target: T1, Sodium-dependent serotonin transporter; format: cell-based, HEK293
Target sequence in this assay (P31645 whole entry): as the sequence (P31645 whole entry, looked up) above

[6] = biological target: T2, Sodium-dependent noradrenaline transporter (Homo sapiens, UniProt P23975)
T2 sequence (P23975 whole entry): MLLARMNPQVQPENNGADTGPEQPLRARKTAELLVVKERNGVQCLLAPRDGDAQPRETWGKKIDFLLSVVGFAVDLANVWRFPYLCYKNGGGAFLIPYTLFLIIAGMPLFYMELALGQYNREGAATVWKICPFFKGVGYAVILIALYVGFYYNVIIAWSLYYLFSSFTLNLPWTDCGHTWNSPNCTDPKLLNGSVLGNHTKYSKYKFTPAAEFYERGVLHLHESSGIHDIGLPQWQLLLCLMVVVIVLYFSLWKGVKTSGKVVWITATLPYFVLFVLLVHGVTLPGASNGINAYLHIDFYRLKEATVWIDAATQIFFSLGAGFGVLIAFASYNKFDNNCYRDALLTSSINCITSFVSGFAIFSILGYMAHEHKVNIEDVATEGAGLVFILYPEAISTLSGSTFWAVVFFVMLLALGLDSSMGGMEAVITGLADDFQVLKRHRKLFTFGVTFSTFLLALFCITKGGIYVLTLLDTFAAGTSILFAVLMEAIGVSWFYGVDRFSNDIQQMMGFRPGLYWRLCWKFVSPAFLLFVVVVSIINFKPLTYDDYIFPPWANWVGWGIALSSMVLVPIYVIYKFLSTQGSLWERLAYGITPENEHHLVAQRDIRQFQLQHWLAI

[7] = biological target: Sodium-dependent dopamine transporter (Homo sapiens, UniProt Q01959)
Sequence of Sodium-dependent dopamine transporter (Q01959 whole entry): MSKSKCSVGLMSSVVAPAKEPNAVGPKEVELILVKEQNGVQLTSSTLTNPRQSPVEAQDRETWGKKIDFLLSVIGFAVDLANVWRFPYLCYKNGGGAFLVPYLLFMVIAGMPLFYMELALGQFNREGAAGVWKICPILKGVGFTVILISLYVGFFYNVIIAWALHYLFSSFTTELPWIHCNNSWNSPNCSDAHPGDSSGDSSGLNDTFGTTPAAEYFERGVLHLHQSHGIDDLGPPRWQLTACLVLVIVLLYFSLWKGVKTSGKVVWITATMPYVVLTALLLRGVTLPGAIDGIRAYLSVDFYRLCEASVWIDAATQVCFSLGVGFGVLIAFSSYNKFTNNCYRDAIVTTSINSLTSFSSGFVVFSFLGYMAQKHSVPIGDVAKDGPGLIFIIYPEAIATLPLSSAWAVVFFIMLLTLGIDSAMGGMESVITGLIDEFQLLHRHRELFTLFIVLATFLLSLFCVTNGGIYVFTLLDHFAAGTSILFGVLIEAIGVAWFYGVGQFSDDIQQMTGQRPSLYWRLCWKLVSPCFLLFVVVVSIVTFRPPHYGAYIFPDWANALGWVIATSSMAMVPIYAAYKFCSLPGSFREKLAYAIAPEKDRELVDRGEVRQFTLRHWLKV

CYP1A2 = biological target: T3, CYP1A2 (Homo sapiens, UniProt P05177); assay: in vitro; settings: recombinant CYP1A2
T3 sequence (P05177 whole entry): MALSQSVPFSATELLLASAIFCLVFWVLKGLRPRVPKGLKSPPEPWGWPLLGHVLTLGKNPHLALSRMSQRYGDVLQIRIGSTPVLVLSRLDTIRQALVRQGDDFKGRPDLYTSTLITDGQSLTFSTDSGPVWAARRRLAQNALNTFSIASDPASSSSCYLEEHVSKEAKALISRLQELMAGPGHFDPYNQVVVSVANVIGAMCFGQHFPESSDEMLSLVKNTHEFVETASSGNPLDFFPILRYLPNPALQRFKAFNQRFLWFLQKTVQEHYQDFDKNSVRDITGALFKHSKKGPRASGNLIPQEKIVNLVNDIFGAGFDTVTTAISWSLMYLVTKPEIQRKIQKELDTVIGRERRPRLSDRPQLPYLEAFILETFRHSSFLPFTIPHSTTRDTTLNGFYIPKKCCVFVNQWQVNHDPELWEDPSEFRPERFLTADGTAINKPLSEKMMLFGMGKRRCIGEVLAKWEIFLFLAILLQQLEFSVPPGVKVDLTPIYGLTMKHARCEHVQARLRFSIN

CYP2D6 = CYP2D6 (Homo sapiens, UniProt P10635); assay: in vitro; settings: recombinant CYP2D6
Sequence of CYP2D6 (P10635 whole entry): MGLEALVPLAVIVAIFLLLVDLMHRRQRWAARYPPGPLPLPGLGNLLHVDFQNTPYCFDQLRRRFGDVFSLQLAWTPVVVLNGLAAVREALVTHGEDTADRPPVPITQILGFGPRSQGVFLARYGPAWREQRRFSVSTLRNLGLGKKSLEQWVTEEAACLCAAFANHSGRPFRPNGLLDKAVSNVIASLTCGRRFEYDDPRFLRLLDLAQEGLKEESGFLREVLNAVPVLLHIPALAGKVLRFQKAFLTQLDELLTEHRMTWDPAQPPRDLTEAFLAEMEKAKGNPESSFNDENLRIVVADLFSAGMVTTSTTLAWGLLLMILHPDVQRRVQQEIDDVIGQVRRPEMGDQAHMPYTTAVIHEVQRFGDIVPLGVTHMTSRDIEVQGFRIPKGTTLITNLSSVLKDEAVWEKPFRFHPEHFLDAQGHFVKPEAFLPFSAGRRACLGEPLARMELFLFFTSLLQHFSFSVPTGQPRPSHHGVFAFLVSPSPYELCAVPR

CYP2C9 = CYP2C9 (Homo sapiens, UniProt P11712); assay: in vitro; settings: recombinant CYP2C9
Sequence of CYP2C9 (P11712 whole entry): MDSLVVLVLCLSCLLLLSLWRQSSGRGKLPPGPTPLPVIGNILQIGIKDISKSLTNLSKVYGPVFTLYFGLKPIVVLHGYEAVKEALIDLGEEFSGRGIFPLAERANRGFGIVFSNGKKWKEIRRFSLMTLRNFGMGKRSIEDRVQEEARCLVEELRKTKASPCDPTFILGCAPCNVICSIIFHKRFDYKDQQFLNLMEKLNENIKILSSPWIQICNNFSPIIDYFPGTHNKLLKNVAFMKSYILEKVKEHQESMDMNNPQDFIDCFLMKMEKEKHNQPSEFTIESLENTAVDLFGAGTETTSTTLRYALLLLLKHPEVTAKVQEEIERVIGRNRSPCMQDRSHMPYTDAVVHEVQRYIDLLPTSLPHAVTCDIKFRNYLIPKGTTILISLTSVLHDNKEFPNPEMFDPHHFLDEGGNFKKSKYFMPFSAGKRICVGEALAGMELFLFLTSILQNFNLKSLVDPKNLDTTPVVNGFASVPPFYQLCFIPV

CYP3A4 = CYP3A4 (Homo sapiens, UniProt P08684); assay: in vitro; settings: recombinant CYP3A4
Sequence of CYP3A4 (P08684 whole entry): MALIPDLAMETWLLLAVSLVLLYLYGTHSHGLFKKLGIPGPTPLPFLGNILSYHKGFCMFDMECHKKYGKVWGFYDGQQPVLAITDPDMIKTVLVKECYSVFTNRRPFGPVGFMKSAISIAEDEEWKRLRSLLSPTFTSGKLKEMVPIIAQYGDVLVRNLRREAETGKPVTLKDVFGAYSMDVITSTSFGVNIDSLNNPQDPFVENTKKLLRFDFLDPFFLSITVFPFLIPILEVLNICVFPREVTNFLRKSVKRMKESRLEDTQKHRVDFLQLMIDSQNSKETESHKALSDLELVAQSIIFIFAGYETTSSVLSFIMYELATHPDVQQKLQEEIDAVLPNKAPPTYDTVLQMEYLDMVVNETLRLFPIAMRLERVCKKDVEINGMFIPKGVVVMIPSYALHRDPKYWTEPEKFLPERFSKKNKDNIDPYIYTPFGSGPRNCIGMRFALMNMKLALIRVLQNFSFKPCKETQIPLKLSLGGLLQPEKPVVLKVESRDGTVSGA

CYP2C19 = CYP2C19 (Homo sapiens, UniProt P33261); assay: in vitro; settings: recombinant CYP2C19
Sequence of CYP2C19 (P33261 whole entry): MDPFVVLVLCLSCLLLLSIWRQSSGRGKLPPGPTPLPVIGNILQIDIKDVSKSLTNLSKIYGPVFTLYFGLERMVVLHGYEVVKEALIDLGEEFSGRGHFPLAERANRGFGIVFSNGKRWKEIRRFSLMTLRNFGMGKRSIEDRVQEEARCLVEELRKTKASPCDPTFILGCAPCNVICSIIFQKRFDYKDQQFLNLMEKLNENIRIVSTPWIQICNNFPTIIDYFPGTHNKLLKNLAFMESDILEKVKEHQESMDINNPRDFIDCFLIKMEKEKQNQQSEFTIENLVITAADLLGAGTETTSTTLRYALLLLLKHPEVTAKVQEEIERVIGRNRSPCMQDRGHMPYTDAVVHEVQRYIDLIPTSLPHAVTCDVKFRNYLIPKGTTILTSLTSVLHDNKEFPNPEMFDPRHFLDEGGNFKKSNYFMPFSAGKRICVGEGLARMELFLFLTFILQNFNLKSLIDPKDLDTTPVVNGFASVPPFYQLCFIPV

[8] = biological target: T2, Sodium-dependent noradrenaline transporter; assay: Ratio of duloxetine IC50 to compound IC50 for norepinephrine reuptake at human NET expressed in HEK293 cells at 0.1 uM after 15 mins by fluorescence neurotransmitter transporter assay; format: cell-based
[9] = biological target: T2, Sodium-dependent noradrenaline transporter; assay: Ratio of venlafaxine IC50 to compound IC50 for norepinephrine reuptake at human NET expressed in HEK293 cells at 0.1 uM after 15 mins by fluorescence neurotransmitter transporter assay; format: cell-based
[10] = biological target: T1, Sodium-dependent serotonin transporter; assay: Ratio of duloxetine IC50 to compound IC50 for serotonin reuptake at human SERT expressed in HEK293 cells at 0.1 uM after 15 mins by fluorescence neurotransmitter transporter assay; format: cell-based
Target sequence in this assay (P31645 whole entry, looked up): as the sequence (P31645 whole entry, looked up) above

[11] = biological target: T1, Sodium-dependent serotonin transporter; assay: Ratio of venlafaxine IC50 to compound IC50 for serotonin reuptake at human SERT expressed in HEK293 cells at 0.1 uM after 15 mins by fluorescence neurotransmitter transporter assay; format: cell-based
Target sequence in this assay (P31645 whole entry, looked up): as above

Compound	inhibition [1] [%]	inhibition [3] [%]	inhibition [4] [%]	other results
Fc1ccc(C(CC2CNC2)Oc2ccccc2OC(F)(F)F)cc1F (configuration not stated)	19	–	–	–
Cc1ccc(OC(CC2CNC2)c2ccc(F)c(F)c2)cc1 (configuration not stated)	83	–	–	–
Fc1ccc(OC(CC2CNC2)c2ccc(F)c(F)c2)cc1 (configuration not stated)	55	–	–	–
Cc1cccc(OC(CC2CNC2)c2ccc(Cl)c(Cl)c2)c1 (configuration not stated)	21	100	100	remaining at 0.5 h, 1 µM [2]: 62%
Clc1ccccc1OC(CC1CNC1)c1ccc2ccccc2c1 (configuration not stated)	25	–	–	–
Cc1cccc(OC(CC2CNC2)c2ccc(Cl)c(F)c2)c1 (configuration not stated)	100	100	100	IC50 [5]: 23 nM; remaining at 0.5 h, 1 µM [2]: 36%; IC50 [6]: 14.7 nM; IC50 [7]: 80.4 nM; inhibition at 10 µM (CYP1A2): 58%; inhibition at 10 µM (CYP2D6): 12%; inhibition at 10 µM (CYP2C9): 6.8%; inhibition at 10 µM (CYP3A4): 12%; inhibition at 10 µM (CYP2C19): 5.5%
Fc1ccc(C(CC2CNC2)Oc2ccccc2Cl)cc1F (configuration not stated)	86	–	–	–
Cc1ccccc1OC(CC1CNC1)c1ccc(F)c(F)c1 (configuration not stated)	93	–	–	–
Clc1ccc(C(CC2CNC2)Oc2ccccc2)cc1Cl (configuration not stated)	50	100	100	Ratio IC50 [8]: > 7; Ratio IC50 [9]: > 7; Ratio IC50 [10]: > 7; Ratio IC50 [11]: > 7; IC50 [5]: 83.4 nM; remaining at 0.5 h, 1 µM [2]: 67%; IC50 [6]: 37.2 nM; IC50 [7]: 52.1 nM
Fc1ccc(OC(CC2CNC2)c2ccc(F)c(F)c2)cc1F (configuration not stated)	63	–	–	–
Clc1cccc(OC(CC2CNC2)c2ccc(Cl)c(Cl)c2)c1 (configuration not stated)	35	100	100	–
Fc1cc(C(CC2CNC2)Oc2ccccc2OC(F)(F)F)ccc1Cl (configuration not stated)	48	100	100	–
Fc1ccc(C(CC2CNC2)Oc2ccc(OC(F)(F)F)cc2)cc1F (configuration not stated)	83	–	–	–
Cc1cccc(OC(CC2CNC2)c2ccc(F)c(F)c2)c1 (configuration not stated)	100	–	–	–
Fc1cccc(OC(CC2CNC2)c2ccc(F)c(F)c2)c1 (configuration not stated)	94	–	–	–
Fc1ccc(OC(CC2CNC2)c2ccc(Cl)c(Cl)c2)cc1 (configuration not stated)	64	100	100	Ratio IC50 [8]: > 7; Ratio IC50 [9]: > 7; Ratio IC50 [10]: > 7; Ratio IC50 [11]: > 7; IC50 [5]: 71.9 nM; IC50 [6]: 33.7 nM; IC50 [7]: 129 nM
c1ccc(OC(CC2CNC2)c2ccc3ccccc3c2)cc1 (configuration not stated)	56	–	–	–
Clc1ccc(OC(CC2CNC2)c2ccc(Cl)c(Cl)c2)cc1Cl (configuration not stated)	21	88	100	–
Clc1ccccc1OC(CC1CNC1)c1ccccc1 (configuration not stated)	100	–	–	–
Fc1ccc(C(CC2CNC2)Oc2ccccc2)cc1F (configuration not stated)	48	–	–	–
Fc1cc(C(CC2CNC2)Oc2ccc(Cl)cc2)ccc1Cl (configuration not stated)	65	100	100	–
Fc1ccc(C(CC2CNC2)Oc2cccc(Cl)c2)cc1F (configuration not stated)	77	–	–	–
Fc1ccccc1OC(CC1CNC1)c1ccccc1 (configuration not stated)	64	–	–	–
Fc1ccc(OC(CC2CNC2)c2ccc(Cl)c(Cl)c2)cc1F (configuration not stated)	31	100	100	–
O=c1cc(-c2ccccc2)oc2c1ccc1ccccc12 [ALPHA-NAPHTHOFLAVONE]	–	–	–	inhibition at 10 µM (CYP1A2): 5.4%
Cc1ccccc1OC(CC1CNC1)c1ccccc1 (configuration not stated)	100	–	–	–

Compound	inhibition [1] [%]	inhibition [3] [%]	inhibition [4] [%]	other results
c1ccc(OC(CC2CNC2)c2ccccc2)cc1 (configuration not stated)	66	–	–	–
Cc1ccccc1OC(CC1CNC1)c1ccc(Cl)c(F)c1 (configuration not stated)	94	100	100	IC50 [5]: 37.7 nM; remaining at 0.5 h, 1 µM [2]: 59%; IC50 [6]: 68.6 nM; IC50 [7]: 162 nM; inhibition at 10 µM (CYP1A2): 55%; inhibition at 10 µM (CYP2D6): 15%; inhibition at 10 µM (CYP2C9): 32%; inhibition at 10 µM (CYP3A4): 16%; inhibition at 10 µM (CYP2C19): 14%
Fc1cc(C(CC2CNC2)Oc2ccccc2Cl)ccc1Cl (configuration not stated)	82	100	100	IC50 [5]: 37.5 nM; remaining at 0.5 h, 1 µM [2]: 89%; IC50 [6]: 30.8 nM; IC50 [7]: 164 nM; inhibition at 10 µM (CYP1A2): 76%; inhibition at 10 µM (CYP2D6): 12%; inhibition at 10 µM (CYP2C9): 18%; inhibition at 10 µM (CYP3A4): 13%; inhibition at 10 µM (CYP2C19): 7.4%
FC(F)(F)Oc1ccc(OC(CC2CNC2)c2ccc(Cl)c(Cl)c2)cc1 (configuration not stated)	16	98	100	–
Cc1ccc(OC(CC2CNC2)c2ccc(Cl)c(F)c2)cc1 (configuration not stated)	97	100	100	IC50 [5]: 38.5 nM; remaining at 0.5 h, 1 µM [2]: 59%; IC50 [6]: 33.1 nM; IC50 [7]: 110 nM; inhibition at 10 µM (CYP1A2): 44%; inhibition at 10 µM (CYP2D6): 10%; inhibition at 10 µM (CYP2C9): 19%; inhibition at 10 µM (CYP3A4): 13%; inhibition at 10 µM (CYP2C19): 7.6%
Fc1ccc(C(CC2CNC2)Oc2ccc(Cl)c(Cl)c2)cc1F (configuration not stated)	44	–	–	–
COCC(=O)O[C@]1(CCN(C)CCCc2nc3ccccc3[nH]2)CCc2cc(F)ccc2[C@@H]1C(C)C [MIBEFRADIL]	–	–	–	remaining at 0.5 h, 1 µM [2]: 43%
Fc1cccc(OC(CC2CNC2)c2ccc(Cl)c(Cl)c2)c1 (configuration not stated)	26	100	100	–
Cc1ccccc1OC(CC1CNC1)c1ccc2ccccc2c1 (configuration not stated)	48	–	–	–
FC(F)(F)Oc1cccc(OC(CC2CNC2)c2ccc(Cl)c(Cl)c2)c1 (configuration not stated)	9	77	100	–
Fc1ccc(C(CC2CNC2)Oc2ccc(Cl)cc2)cc1F (configuration not stated)	49	–	–	–
Cc1ccc(OC(CC2CNC2)c2ccc(Cl)c(Cl)c2)cc1 (configuration not stated)	59	100	100	–
Clc1ccc([C@]23CNC[C@H]2C3)cc1Cl [AMITIFADINE]	–	–	–	remaining at 0.5 h, 1 µM [2]: 67%
Clc1ccc(OC(CC2CNC2)c2ccc(Cl)c(Cl)c2)cc1 (configuration not stated)	41	100	100	–
CNCCC(Oc1ccccc1OC)c1ccccc1 (configuration not stated)	–	43	85	–
Fc1ccccc1OC(CC1CNC1)c1ccc(Cl)c(Cl)c1 (configuration not stated)	59	100	100	Ratio IC50 [8]: > 7; Ratio IC50 [9]: > 7; Ratio IC50 [10]: > 7; Ratio IC50 [11]: > 7; IC50 [5]: 73.8 nM; IC50 [6]: 33.5 nM; IC50 [7]: 53.6 nM
Fc1cc(C(CC2CNC2)Oc2cccc(OC(F)(F)F)c2)ccc1Cl (configuration not stated)	25	97	100	–
FC(F)(F)Oc1ccccc1OC(CC1CNC1)c1ccc(Cl)c(Cl)c1 (configuration not stated)	16	93	100	–
Nc1ccc(S(=O)(=O)Nc2ccnn2-c2ccccc2)cc1 [SULFAPHENAZOLE]	–	–	–	inhibition at 10 µM (CYP2C9): 11.3%
Clc1ccc(COC(Cn2ccnc2)c2ccc(Cl)cc2Cl)c(Cl)c1 (configuration not stated) [MICONAZOLE]	–	–	–	inhibition at 10 µM (CYP2C19): 8.6%
Fc1ccc(C(CC2CNC2)Oc2ccccc2F)cc1F (configuration not stated)	61	–	–	–
Cc1ccccc1OC(CC1CNC1)c1ccc(Cl)c(Cl)c1 (configuration not stated)	25	100	100	remaining at 0.5 h, 1 µM [2]: 89%
Fc1ccc(C(CC2CNC2)Oc2cccc(OC(F)(F)F)c2)cc1F (configuration not stated)	83	–	–	–
Clc1ccc(C(CC2CNC2)Oc2ccccc2Cl)cc1Cl (configuration not stated)	40	100	100	–
Fc1cc(C(CC2CNC2)Oc2ccccc2)ccc1Cl (configuration not stated)	80	100	100	IC50 [5]: 51.3 nM; remaining at 0.5 h, 1 µM [2]: 41%; IC50 [6]: 10.6 nM; IC50 [7]: 33.1 nM
